Measured values as given in patent publication US9994915B2, “miR-211 expression and related pathways in human melanoma” (Sanford-Burnham Medical Research Institute, priority 2010, dated 2018).

Columns and labels:
Assay type in all cases: cell-based, human
A375 melanoma cells [1] = test: cell proliferation (cell counts) of A375 lines; conditions: A375/211
Description: The over-expression of KCNMA1 is often associated with both cell proliferation and cell migration/invasion in various cancers. Therefore, the effects of depletion of miR-211 and associated over-expression of KCNMA1 on these process in melanoma cells were determined. Proliferation rates of melanoma cell lines stably transfected with the miR-211 expression cassette were compared with those of untransfected melanoma cells and cell lines transfected with the empty expression vector (FIG. 8A), respectively.
Assays were performed using WM1552C, WM1552C/VO, WM1552C/211(400), WM1552C/211(800), A375, A375/VO, and A375/211 cell lines. Cells were grown in log phase, trypsinized, counted using an automated cell counter (Cellometer®, Nexcelom Bioscience), and then seeded into 75 cm^2 flasks at 5×10^5 cells per flask (in triplicate). Media was changed after 6 hours, and cells were further fed every 48 hours (Complete Tu Media). At days 4, 10, 15, and 21, cells were trypsinized, counted (Cellometer®, Nexcelom Bioscience), and then reseeded. Each assay was performed in duplicate for all cell lines.

KCNMA1 protein = test: western blot of KCNMA1 protein in WM1552C lines; conditions: stably transfected WM1552C lines
Description: qRT-PCR analyses were then run to determine whether the induced expression of miR-211 in melanoma cells could reduce KCNMA1 transcript levels. […] To further address whether KCNMA1 mRNA levels reflected KCNMA1 protein expression, a western blot analysis was performed looking for KCNMA1 in cell extracts obtained from: 1) WM1552C, 2) WM1552C/VO (WM1552C cells with a stably-incorporated empty expression vector), 3) WM1552C/211(400), 4) WM1552C/211(800), and 5) WM1552C/KC KO (WM1552C cells with a stably-expressing shRNA against the KCNMA1 mRNA) (FIG. 6C). […] To further confirm our observations, we measured the correlation between miR-211 expression and KCNMA1 protein levels (FIG. 6D). […] To confirm that this expression correlation occurred in non-transformed cells in addition to cancerous cell lines, the effect of miR-211 inhibition on the expression of KCNMA1 in melanocytes was examined. Melanocytes were transfected with anti-miR-211 inhibitors (Exiqon) and the protein expression of KCNMA1 was measured. […]
2.5×10^5 cells WM1552C/211(800) cells were seeded into wells of a 6-well plate. […] After 48 hours, the cells were harvested by trypsinization and counted using an automated cell counter (Cellometer®, Nexcelom Bioscience). […]
A KCNMA1 constitutively-expressing plasmid was transiently transfected into WM1552C/211(800) cells. […] KCNMA1 protein expression levels were then detected by KCNMA1 antibody. […]

IGFBP5 mRNA = test: Next Gen sequencing of IGFBP5 mRNA in WM1552C cells
Description: To extend the findings of the MITF knock-down study and to further establish IGFBP5 as a miR-211 target, the effect of miR-211 expression on IGFBP5 mRNA was determined. WM1552C cells were transfected with either an empty vector or the vector encoding and expressing miR-211. Additionally, untransfected WM1552C cells were treated with 5-Aza-2′deoxycytidine (“5-Aza”) to investigate whether miR-211 down-regulates IGFBP5 mRNA production through a genomic methylation mechanism.

A375 melanoma cells [2] = test: oxygen consumption, Seahorse XF96 Analyzer; conditions: miR-211-expressing A375 cells
Description: Deep-sequencing (RNA-seq) and proteomics (mass spectrometry) data from two melanoma cell lines A375 and W[…], each expressing miR-211 or the empty vector, were generated. […] Energy consumption was investigated in miR-211-expressing cells. Using the Seahorse XF96 Analyzer, it was determined that miR-211-expressing melanoma cells (A375) consumed nearly double the amount of oxygen as control cells expressing the empty vector (FIG. 35). […] Finally, we measured the level of hypoxia-inducible factor 1 alpha (HIF-1α) in miR-211-expressing cells. HIF-1α expression was reduced by miR-211 expression which is an indication of cellular respiration changes (FIG. 37).

PDK4 = test: proteomics (mass spectrometric) data, PDK4 expression; conditions: miR-211-expressing melanoma cells
Description: Deep-sequencing (RNA-seq) and proteomics (mass spectrometry) data from two melanoma cell lines A375 and WM1552C, each expressing miR-211 or the empty vector, were generated. […] Energy consumption was investigated in miR-211-expressing cells. Using the Seahorse XF96 Analyzer, it was determined that miR-211-expressing melanoma cells (A375) consumed nearly double the amount of oxygen as control cells expressing the empty vector (FIG. 35). […] Finally, we measured the level of hypoxia-inducible factor 1 alpha (HIF-1α) in miR-211-expressing cells. HIF-1α expression was reduced by miR-211 expression which is an indication of cellular respiration changes (FIG. 37).
This target was further confirmed by the cleavage assay, and the downregulation was verified by western blot analysis (FIG. 38). Similarly, peroxisome proliferator-activated receptor-γ coactivator (PGC1α) was identified by the proteomics data and validated by western blot analysis. PGC1α is a low express gene in A375 cells, but it is been targeted by miR-211 according to target cleavage and qPCR results. Finally, insulin-like growth factor-binding protein 5 (IGFBP5) was identified through the RNA-seq data and results are illustrated in FIG. 34.

A375 cells = test: lipid species (PI acyl chains) by mass spectrometry in A375 vs A375/211; conditions: A375/211 vs A375 cells
From the text: To determine the effect of miR-211 expression in A375 cells on the production of lipid species, as an indicator of metabolic change, fatty acids were isolated and quantitated in A375 cells and A375/211 by mass spectrometry. […] This confirms that miR-211 is capable of altering the metabolic profile of these metabolic cells.

Substance: miR-211: pre-miR-211 sequence stably expressed from plasmid pcDNA4/miR-211 in melanoma cells; mature sequence UUCCCUUUGUCAUCCUUCGCCU (SEQ ID NO: 15) (listed as Homo sapiens)
- cell proliferation compared to untransfected A375 or A375/VO (A375 melanoma cells [1]): grew more slowly
- KCNMA1 protein levels compared to WM1552C/VO or untransfected WM1552C (KCNMA1 protein): significantly reduced
- IGFBP5 mRNA expression (IGFBP5 mRNA): almost to undetectably levels
- amount of oxygen consumed vs empty vector control cells (A375 melanoma cells [2]): nearly double
- PDK4 expression (PDK4): heavily downregulated
- content of 18:0-18:2 acyl chains (A375 cells): large increase
- content of 18:0-20:4 acyl chains (A375 cells): large decrease
